{
  "source": "patent US20170152226A1",
  "about": "“FUNCTIONALISED AND SUBSTITUTED INDOLES AS ANTI-CANCER AGENTS” (Novogen Ltd., priority 2014, published 2017)",
  "key": {"[1]": {"tested_on": "CHLA20 tumours", "assay": "CHLA20 neuroblastoma xenograft model", "type": "in vivo", "settings": "150 mg/kg IP daily, 18 days", "experimental": "FIG. 4: Compound 3507/30% w/v Dexolve-7 was administered IP daily at 150 mg/kg for 18 days in a flank xenograft model of neuroblastoma (CHLA-20). Tumour volume was measured every 2-3 days.\nThe in vivo efficacy of compound 3507 was evaluated in the CHLA20 neuroblastoma xenograft model. CHLA20 tumours were established in athymic nude mice by injecting 1.0×10^7 tumour cells subcutaneously in the right flank. Dosing of animals commenced when tumour volume reached ˜200-400 mm^3. Animals (˜n=5+) were randomly divided into treatment and control groups. Compound 3507 was dosed daily by intraperotineal (IP) injection at 150 mg/kg in 30% w/v Captisol (a cyclodextrin-containing formulation)."}, "[2]": {"tested_on": "SK-N-Be(2)", "assay": "Anti-proliferative activity, MTS viability assay", "type": "cell-based", "settings": "Homo sapiens, SKNBE2, 72 hours exposure, read-out: IC50 Neuroblastoma SK-N-Be(2)", "experimental": "(§1) The anti-proliferative activity of compound 3507 was further evaluated in cell lines representative of melanoma, prostate cancer, leukaemia and neuroblastoma. Cell viability after 72 hours exposure to increasing concentrations of compound 3507 was measured using an MTS viability assay. Cell viability was normalized to control (vehicle alone) and dose-response curves, and relative inhibitory concentration (IC50) values were determined using GraphPad Prism 6."}, "[3]": {"tested_on": "P4E6", "assay": "Anti-proliferative activity, MTS viability assay", "type": "cell-based", "settings": "72 hours exposure, read-out: IC50 Prostate P4E6", "experimental": "as §1"}, "[4]": {"tested_on": "MM96L", "assay": "Anti-proliferative activity, MTS viability assay", "type": "cell-based", "settings": "Homo sapiens, 72 hours exposure, read-out: IC50 Melanoma MM96L", "experimental": "as §1"}, "[5]": {"tested_on": "BL", "assay": "Anti-proliferative activity, MTS viability assay", "type": "cell-based", "settings": "72 hours exposure, read-out: IC50 Melanoma BL", "experimental": "as §1"}, "[6]": {"tested_on": "MM415", "assay": "Anti-proliferative activity, MTS viability assay", "type": "cell-based", "settings": "72 hours exposure, read-out: IC50 Melanoma MM415", "experimental": "as §1"}, "[7]": {"tested_on": "D20", "assay": "Anti-proliferative activity, MTS viability assay", "type": "cell-based", "settings": "72 hours exposure, read-out: IC50 Melanoma D20", "experimental": "as §1"}, "[8]": {"tested_on": "CHLA-20", "assay": "Anti-proliferative activity, MTS viability assay", "type": "cell-based", "settings": "72 hours exposure, read-out: IC50 Neuroblastoma CHLA-20", "experimental": "as §1"}, "[9]": {"tested_on": "MM329", "assay": "Anti-proliferative activity, MTS viability assay", "type": "cell-based", "settings": "72 hours exposure, read-out: IC50 Melanoma MM329", "experimental": "as §1"}, "[10]": {"tested_on": "CHLA-90", "assay": "Anti-proliferative activity, MTS viability assay", "type": "cell-based", "settings": "72 hours exposure, read-out: IC50 Neuroblastoma CHLA-90", "experimental": "as §1"}, "[11]": {"tested_on": "K562", "assay": "Anti-proliferative activity, MTS viability assay", "type": "cell-based", "settings": "Homo sapiens, 72 hours exposure, read-out: IC50 Leukemia K562", "experimental": "as §1"}, "[12]": {"tested_on": "HL-60", "assay": "Anti-proliferative activity, MTS viability assay", "type": "cell-based", "settings": "Homo sapiens, 72 hours exposure, read-out: IC50 Leukemia HL-60", "experimental": "as §1"}, "[13]": {"tested_on": "SKMEL13", "assay": "Anti-proliferative activity, MTS viability assay", "type": "cell-based", "settings": "72 hours exposure, read-out: IC50 Melanoma SKMEL13", "experimental": "as §1"}, "[14]": {"tested_on": "THP-1", "assay": "Anti-proliferative activity, MTS viability assay", "type": "cell-based", "settings": "Homo sapiens, 72 hours exposure, read-out: IC50 Leukemia THP-1", "experimental": "as §1"}, "[15]": {"tested_on": "CHP-134", "assay": "Anti-proliferative activity, MTS viability assay", "type": "cell-based", "settings": "Homo sapiens, 72 hours exposure, read-out: IC50 Neuroblastoma CHP-134", "experimental": "as §1"}, "[16]": {"tested_on": "LNCaP", "assay": "Anti-proliferative activity, MTS viability assay", "type": "cell-based", "settings": "Homo sapiens, 72 hours exposure, read-out: IC50 Prostate LNCaP", "experimental": "as §1"}, "[17]": {"tested_on": "BPH-1", "assay": "Anti-proliferative activity, MTS viability assay", "type": "cell-based", "settings": "Homo sapiens, 72 hours exposure, read-out: IC50 Prostate BPH-1", "experimental": "as §1"}, "[18]": {"tested_on": "A2058", "assay": "Anti-proliferative activity, MTS viability assay", "type": "cell-based", "settings": "Homo sapiens, 72 hours exposure, read-out: IC50 Melanoma A2058", "experimental": "as §1"}, "[19]": {"tested_on": "SK-Mel-28", "assay": "Anti-proliferative activity, cell-titre luminescent viability assay", "type": "cell-based", "settings": "Homo sapiens, SK-MEL-28; 72 hours; 0.03, 0.3, 3 and 30 μM; linear regression of semi-log plots; read-out: IC50 Melanoma SK-Mel-28", "in_short": "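Cells attached for 24 h at 37° C, 5% CO2, then received compound (0.03, 0.3, 3, 30 μM, or 0.1–30 μM in six steps) for 72 h. Viability was read by cell-titre luminescence after 30 min and normalized to untreated or vehicle control. IC50 came from linear regression of semi-log plots, or EC50 from variable-slope sigmoidal nonlinear regression, depending on compound.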"}},
  "note": "pIC50: −log10 of the molar value.",
  "data": [
    {"smiles": "Cc1c(C)n(CCCN2CCN(C)CC2)c2ccc(Oc3cccc(C(=O)N4CCN(CCc5ccc(F)cc5)CC4)c3)cc12", "note": "[Compound 3507, (3-((2,3-dimethyl-1-(3-(4-methylpiperazin-1-yl)propyl)-1H-indol-5-yl)oxy)phenyl)(4-(4-fluorophenethyl)piperazin-1-yl)methanone]", "values": [
      {"measurement": "tolerability", "setting": "[1]", "value": "well tolerated"},
      {"measurement": "pIC50", "setting": "[2]", "value": 5.26},
      {"measurement": "pIC50", "setting": "[3]", "value": 6.06},
      {"measurement": "pIC50", "setting": "[4]", "value": 5.49},
      {"measurement": "pIC50", "setting": "[5]", "value": 5.23},
      {"measurement": "pIC50", "setting": "[6]", "value": 5.33},
      {"measurement": "pIC50", "setting": "[7]", "value": 5.30},
      {"measurement": "pIC50", "setting": "[8]", "value": 5.16},
      {"measurement": "pIC50", "setting": "[9]", "value": 5.42},
      {"measurement": "pIC50", "setting": "[10]", "value": 5.37},
      {"measurement": "pIC50", "setting": "[11]", "value": 6.02},
      {"measurement": "pIC50", "setting": "[12]", "value": 5.94},
      {"measurement": "pIC50", "setting": "[13]", "value": 5.43},
      {"measurement": "pIC50", "setting": "[14]", "value": 6.10},
      {"measurement": "pIC50", "setting": "[15]", "value": 5.14},
      {"measurement": "pIC50", "setting": "[16]", "value": 6.23},
      {"measurement": "pIC50", "setting": "[17]", "value": 6.14},
      {"measurement": "pIC50", "setting": "[18]", "value": 5.39},
      {"measurement": "pIC50", "setting": "[19]", "value": 6.00}
    ]}
  ]
}
